# Results from US20090131356A1, “miR-15, miR-26, miR-31, miR-145, miR-147, miR-188, miR-215, miR-216, miR-331, mmu-miR-292-3P REGULATED GENES AND PATHWAYS AS TARGETS FOR THERAPEUTIC INTERVENTION” (ASURAGEN, INC., priority 2006, published 2009).
# Legend:
# Type in all cases: cell-based, human
# H520 cells = experiment: Alamar Blue proliferation assay, H520
# Excerpt: (§1) The inventors assessed the therapeutic effect of hsa-miR-147 for lung cancer by using 12 individual lung cancer cell lines. To measure cellular proliferation of lung cancer cells, the following parental non-small cell lung cancer (NSCLC) cells were used: cells derived from lung adenocarcinoma (A549, H1299, H522, H838, Calu-3, HCC827, HCC2935), cells derived from lung squamous cell carcinoma (H520, H226), cells derived from lung adenosquamous cell carcinoma (H596), cells derived from lung bronchioalveolar carcinoma (H1650), and cells derived from lung large cell carcinoma (H460). In addition to these parental cell lines, highly metastatic NSCLC cells were used that stably express the firefly luciferase gene: A549-luc, H460-luc, HCC827-luc, H1650-luc, H441-luc. Unlike the parental cell lines, these metastatic cells readily migrate to distant sites of the test animal and form metastases upon subcutaneous, orthotopic, or intravenous injection. Synthetic hsa-miR-147 or negative control miRNA was delivered via lipid-based transfection into A549, H1299, H522, H838, Calu-3, HCC827, HCC2935, H520, H596, H1650, H460, A549-luc, H460-luc, HCC827-luc, H1650-luc, H441-luc cells and via electroporation into H226 cells. Lipid-based reverse transfection was carried out in triplicates according to a published protocol and the following parameters: 5000-12000 cells per 96 well, 0.1-0.2 μl lipofectamine-2000 (Invitrogen, Carlsbad, Calif.) in 20 μl OptiMEM (Invitrogen), […] final concentration of miRNA in 100 μl (Ovcharenko et al., 2005). Electroporation of H226 cells was carried out using the BioRad GenePulserXcell™ instrument with the following settings: 5×10^6 cells with 5 μg miRNA in 200 μl OptiMEM, square wave pulse at 250 V for 5 ms. Electroporated H226 cells were seeded at 7000 cells per 96-well in a total volume of 100 μl. All cells except for Calu-3 cells were harvested 72 hours post transfection or electroporation for assessment of cellular proliferation. Calu-3 cells were harvested 10 days post transfection. […]
# H596 cells = experiment: Alamar Blue proliferation assay, H596
# Excerpt: as §1
# H1650 cells = experiment: Alamar Blue proliferation assay, H1650
# Excerpt: as §1
# H460 cells = experiment: Alamar Blue proliferation assay, H460
# Excerpt: as §1
# A549-luc cells = experiment: Alamar Blue proliferation assay, A549-luc
# Excerpt: as §1
# HCC827-luc cells = experiment: Alamar Blue proliferation assay, HCC827-luc
# Excerpt: as §1
# H1650-luc cells = experiment: Alamar Blue proliferation assay, H1650-luc
# Excerpt: as §1
# H441-luc cells = experiment: Alamar Blue proliferation assay, H441-luc
# Excerpt: as §1
# H460 lung cancer cells = experiment: Alamar Blue proliferation assay of pair-wise miRNA combinations; conditions: for % proliferation: H460 cells, normalized to 600 pM negative control (NC) miRNA
# Excerpt: miRNAs function in multiple pathways controlling multiple cellular processes. Cancer cells frequently show aberrations in several different pathways which determine their oncogenic properties. Therefore, combinations of multiple miRNAs may provide a better therapeutic benefit rather than a single miRNA. The inventors assessed the efficacy of pair-wise miRNA combinations, administering hsa-miR-147 concurrently with hsa-miR-124a, hsa-miR-126, hsa-let7b, hsa-let-7c or hsa-let7g. H460 lung cancer cells were transiently reverse transfected in triplicates with each miRNA at a final concentration of 300 pM, totaling in 600 pM of oligonucleotide. As a negative control, 600 pM of negative control miRNA (pre-miR NC#2, Ambion) was used. To correlate the effect of various combinations with the effect of the sole miRNA, each miRNA at 300 pM was also combined with 300 pM negative control miRNA. Reverse transfection was carried using the following parameters: 7000 cells per 96 well, 0.15 μl lipofectamine2000 (Invitrogen) in 20 μl OptiMEM (Invitrogen), 100 μl total transfection volume. […] Cells were harvested 72 hours after transfection and subjected to Alamar Blue assays (Invitrogen). Alamar Blue values were normalized to the ones obtained from cells treated with 600 pM negative control miRNA. Data are expressed as % proliferation relative to negative control miRNA-treated cells.
# As shown in FIG. 4 and Table 9, transfection of 300 pM hsa-miR-147 reduces proliferation of H460 cells by 23%. […] Additive activity of pair-wise combinations (e.g., hsa-miR-147 plus hsa-miR-124a) is defined as an activity that is greater than the sole activity of each miRNA (e.g., activity of hsa-miR-147 plus hsa-miR-124a>hsa-miR-147 plus NC AND activity of hsa-miR-147 plus hsa-miR-124a>hsa-miR-124a plus NC). Synergistic activity of pair-wise combinations is defined as an activity that is greater than the sum of the sole activity of each miRNA (e.g., activity of hsa-miR-147 plus hsa-miR-124a>SUM [activity of hsa-miR-147 plus NC AND activity of hsa-miR-124a plus NC]). […]
# [1] = etoposide 10 μM, normalized to negative control miRNA (100%)
# [2] = etoposide 50 μM, normalized to negative control miRNA (100%)
# [3] = 30 nM, normalized to negative control miRNA (100% proliferation)
compound,measurement,setting,value
"COc1cc([C@@H]2c3cc4c(cc3[C@@H](O[C@@H]3O[C@@H]5CO[C@@H](C)O[C@H]5[C@H](O)[C@H]3O)[C@H]3COC(=O)[C@H]23)OCO4)cc(OC)c1O [Etoposide, etoposide]",% proliferation,H520 cells; [1],66.80%
same,% proliferation,H520 cells; [2],48.53%
same,% proliferation,H596 cells; [1],88.75%
same,% proliferation,H596 cells; [2],73.39%
same,% proliferation,H1650 cells; [1],90.98%
same,% proliferation,H1650 cells; [2],60.31%
same,% proliferation,H460 cells; [1],32.13%
same,% proliferation,H460 cells; [2],27.82%
same,% proliferation,A549-luc cells; [1],8.56%
same,% proliferation,A549-luc cells; [2],0.72%
same,% proliferation,HCC827-luc cells; [1],21.92%
same,% proliferation,HCC827-luc cells; [2],0.75%
same,% proliferation,H1650-luc cells; [1],33.78%
same,% proliferation,H1650-luc cells; [2],5.59%
same,% proliferation,H441-luc cells; [1],41.22%
same,% proliferation,H441-luc cells; [2],1.99%
same,% proliferation,H460 lung cancer cells; etoposide 10 μM,20.19%
same,% proliferation,H460 lung cancer cells; etoposide 50 μM,14.94%
"hsa-miR-147: Synthetic pre-miR-147 (Ambion AM17100; Dharmacon in vivo); mature sequence GUGUGUGGAAAUGCUUCUGC, MIMAT0000251, SEQ ID NO:114 (synthetic pre-miR (Ambion/Dharmacon), chemistry not given here; listed as Homo sapiens)",% proliferation,H520 cells; [3],95.64%
same,% proliferation,H596 cells; [3],91.60%
same,% proliferation,H1650 cells; [3],84.61%
same,% proliferation,H460 cells; [3],72.11%
same,% proliferation,A549-luc cells; [3],75.69%
same,% proliferation,HCC827-luc cells; [3],61.15%
same,% proliferation,H1650-luc cells; [3],59.27%
same,% proliferation,H441-luc cells; [3],55.53%
same,reduction of proliferation of H460 cells,"H460 lung cancer cells; 300 pM single miRNA plus 300 pM negative control miRNA, 72 hours, vs 600 pM negative control miRNA",23%
